Tested on: HCV
Assay: Pharmacodynamic evaluation of antiviral drug in C/O^Tg mice by acute HCV infection (HCV RNA copies by qRT-PCR)
Format: in vivo, C/O^Tg male mice
Details: for viral load in the peripheral blood: started 1 week after HCV injection
Method: Plasmid pJ399EM was transcribed in vitro (Han et al., 2009) to obtain a RNA, and then the RNA was electroporated into Huh7.5.1 cells (Pasteur Institute) for virus production during 96 hours and for collection, followed by ultrafiltration and purification to obtain HCV. The C/O^Tg double transgenic mice or the wile type mice were injected at tail-vein with HCV (TCID50=1×10^8/mL) within 1-2 minutes. The serum or liver tissue of the C/O^Tg double transgenic mice or the wile type mice were collected respectively at indicated time 0 hour to 12 months after infection. HCV RNA level in serum (genomes/mL) and liver (genomes/g) were measured by qRT-PCR. The program was performed as follows: 50° C. for 30 minutes, 95° C. for 10 minutes, followed by 50 cycles at 95° C. for 30 seconds, 58° C. for 30 seconds, and 72° C. for 30 seconds. Primers used for detection were as follows: sense (forward primer): […] (represented by SEQ ID NO. 5); anti-sense (reverse primer): […] (represented by SEQ ID NO. 6). The viral load in serum (genomes/mL) of the wild type mice after injection was: 53746900±747977 (12 hours), 25791242±8626787 (2 days), 7026±2797 (4 days), 433±73 (1 week), and then the viral copies in peripheral blood of wild type mice was undetectable after one week. The viral load in peripheral blood (genomes/mL) of the C/O^Tg double transgenic mice after injection was: 3598678±3016340 (12 hours), 1607875±1304933 (2 days), 228942±174178 (4 days), 64505±6821 (1 week), 67622±4612 (2 weeks), 33671±13347 (3 weeks), 6921±4272 (1 month), 6739±4783 (2 months), 403±95 (3 months), 534±125 (4 months), 1375±198 (6 months), 4781±2969 (10 months), 2067±277 (12 months). […] The viral copies cannot be detectable in liver of the wile type mice after injection. The viral copies in the liver (genomes/g) of the C/O^Tg double transgenic mice after injection was: 149676500±26422459.09 (12 hours), 68863260±26554660 (2 days), 30167166±14023164 (4 days), 48183923±49326087 (1 week), 5221675±782099 (2 weeks), 4723475±570250 (3 weeks), 5649760±3372903 (1 month), 3597135±2671267 (2 months), 1831199±34834 (3 months), 3055570±565440 (4 months), 10729851±3954535 (6 months), 14392085±1902774 (10 months), 15543000±124774 (12 months). […] Meanwhile, the liver tissues were used for pathological analysis (H&E stain, Masson's stain), ultrasound, CT and other non-invasive imaging analysis to assess hepatitis, liver damage (fibrosis and cirrhosis) and other typical HCV pathology caused by HCV infection. The double transgenic mice infected by HCV express mild hepatitis symptoms (most ALT<40). The ALT level of the wild type mice was (U/L): 17.8±11.08 (uninfected), 10.5 0.51 (12 hours), 7.0±1.42 (2 days), 29.5±9.19 (4 days), 6.6±3.54 (1 weeks), 28.2±8.84 (2 weeks), 17.7±13.33 (1 month), 27.9±1.69 (2 months), 26.5±0.70 (3 months), 37.4±12.90 (4 months), 27.3±6.01 (10 months), 16.5±6.29 (12 months). The ALT level of the C/O^Tg double transgenic mice was (U/L): 17.8±11.01 (uninfected), 7.8±6.72 (12 hours), 28.0±1.25 (2 days), 57.3±3.88 (4 days), 16.3±7.72 (1 week), 61.0±5.65 (2 week), 21.2±11.16 (1 month), 19.6±0.68 (2 months), 27.4±10.25 (3 months), 36.3±4.06 (4 months), 35.7±5.44 (6 months), 19.5±3.79 (10 months), 232.3±26.89 (12 months). […] The prealbumin levels of the wild type mice after injection were maintained at normal levels (20˜30 mg/L), but the prealbumin levels of the C/O^Tg double transgenic mice cannot be detectable 4 days after infection. […]

Compound	viral load in the peripheral blood (Ribavirin 20 mg/kg i.p. daily, treatment for 1 week)	viral load in the peripheral blood (Ribavirin 20 mg/kg i.p. daily, treatment for 4 weeks)	viral copies in the liver (Ribavirin 20 mg/kg i.p. daily, 1 week after Ribavirin injection) [genomes/mg]	viral copies in the liver (Ribavirin 20 mg/kg i.p. daily, 4 weeks after Ribavirin injection) [genomes/mg]	viral copies in the liver (Telaprevir 200 mg/kg i.p. daily, 1 week after Telaprevir injection) [genomes/mg]
NC(=O)c1ncn([C@@H]2O[C@H](CO)[C@@H](O)[C@H]2O)n1 [Ribavirin]	cannot be detected	cannot be detected	260±226	894±639	
CCC[C@H](NC(=O)[C@@H]1[C@H]2CCC[C@H]2CN1C(=O)[C@@H](NC(=O)[C@@H](NC(=O)c1cnccn1)C1CCCCC1)C(C)(C)C)C(=O)C(=O)NC1CC1 [Telaprevir]					273±301
